Test system: human chronic myelocytic leukemia-derived K562 cells
Experiment: Cell growth inhibition test with K562 cells (WST-1)
Assay type: cell-based
Settings: 72 hours, read-out: 50% growth inhibition concentration (GI50)
Method: In a 96-well plate (Nunc), human chronic myelocytic leukemia-derived K562 cells were sown in an amount of 1500 cells/well, and pre-incubated in 10% FCS-containing Rosewell Park Memorial Institute's Medium (RPMI) 1640 (Nissui) (incubation medium) in a 5% carbon dioxide incubator at 37° C. for 5 hours. Next, a DMSO solution of a test compound controlled at 10 mmol/L was stepwise diluted with the incubation medium, and added to each well in a total amount of 100 μL/well, and further incubated in the 5% carbon dioxide incubator at 37° C. for 72 hours. After the incubation, WST-1-labeled mixture (Rosh Diagnostic) diluted 2-fold with the incubation medium was added thereto in an amount of 20 μL/well, and incubated in the 5% carbon dioxide incubator at 37° C. for 2 hours. Using a microplate spectrophotometer (Biorad's Model 550), the absorbance at 450 nm and 655 nm of each well was measured. The cell growth inhibition activity of the test compound was indicated by the 50% growth inhibition concentration (GI50) thereof, like in Test Example 2.

Q: With CCNC(=O)Nc1cccc(-c2c(O)cc(O)c(CC)c2CCOCC(O)CO)c1 (stereo not drawn) [Compound 206, 5-[2-(2,3-Dihydroxypropoxy)ethyl]-6-ethyl-4-[3-(3-ethylureido)phenyl]benzene-1,3-diol] as the molecule, how does the GI50 read?
A: ≤ 50 µM

Q: For CCc1c(O)cc(O)c(-c2cccc(NC(=O)C(C)(CO)CO)c2)c1CCOCC(O)CO (stereo not drawn) [Compound 207, 5-[2-(2,3-Dihydroxypropoxy)ethyl]-6-ethyl-4-{3-[2-hydroxy-1-(hydroxymethyl)-1-methylethylcarbonylamino]phenyl}benzene-1,3-diol], which GI50 is on record?
A: ≤ 50 µM

Q: For CCc1c(O)cc(O)c(-c2ccccc2)c1Cc1ocnc1CO [Compound 208, 6-Ethyl-5-{[4-(hydroxymethyl)-1,3-oxazol-5-yl]methyl}-4-phenylbenzene-1,3-diol], which GI50 is on record?
A: ≤ 50 µM

Q: Which GI50 does the source give for CCc1c(O)cc(O)c(-c2ccccc2)c1CC1OCC(CO)O1 (stereo not drawn) [Compound 211, 6-Ethyl-5-[(4-hydroxymethyl-1,3-dioxolan-2-yl)methyl]-4-phenylbenzene-1,3-diol] here?
A: ≤ 50 µM

Q: With CCc1c(O)cc(O)c(-c2ccccc2)c1CCC(N)=O [Compound 212, 3-(2-Ethyl-3,5-dihydroxy-6-phenylphenyl)propanamide] as the molecule, how does the GI50 read?
A: ≤ 50 µM

Q: With CCc1c(O)cc(O)c(-c2ccccc2)c1CCC(C(=O)OC)C(=O)OC [Compound 213, Methyl 4-(2-ethyl-3,5-dihydroxy-6-phenylphenyl)-2-(methoxycarbonyl)butanoate] as the molecule, how does the GI50 read?
A: ≤ 50 µM

Q: CCc1c(O)cc(O)c(-c2ccccc2)c1C=CC(CO)CO [Compound 214, 6-ethyl-5-[4-hydroxy-3-(hydroxymethyl)but-1-en-1-yl]-4-phenylbenzene-1,3-diol] was tested. Which GI50 did it give?
A: ≤ 50 µM

Q: For CCc1c(O)cc(O)c(-c2ccccc2)c1CCC(CO)CO [Compound 215, 6-Ethyl-5-[4-hydroxy-3-(hydroxymethyl)butyl]-4-phenylbenzene-1,3-diol], which GI50 is on record?
A: ≤ 50 µM

Q: With CCc1c(O)cc(O)c(-c2ccccc2)c1CCCC(CO)CO [Compound 217, 6-Ethyl-5-[5-hydroxy-4-(hydroxymethyl)pentyl]-4-phenylbenzene-1,3-diol] as the molecule, how does the GI50 read?
A: ≤ 50 µM

Q: Which GI50 does the source give for CCc1c(O)cc(O)c(-c2cccc(O)c2)c1CCOCC1CO1 (stereo not drawn) [Compound 219, 6-Ethyl-4-(3-hydroxyphenyl)-5-[2-(oxiran-2-ylmethoxy)ethyl]benzene-1,3-diol] here?
A: ≤ 50 µM

Q: CCc1c(O)cc(O)c(-c2ccccc2)c1CCC(=O)NCCO [Compound 220, 3-(2-Ethyl-3,5-dihydroxy-6-phenylphenyl)-N-(2-hydroxyethyl)propanamide] was tested. Which GI50 did it give?
A: ≤ 50 µM

Q: CCc1c(O)cc(O)c(-c2ccccc2)c1CCC(=O)NCCNC(C)=O [Compound 221, N-[2-(acetylamino)ethyl]-3-(2-ethyl-3,5-dihydroxy-6-phenylphenyl)propanamide] was tested. Which GI50 did it give?
A: ≤ 50 µM

Q: With CCc1c(O)cc(O)c(-c2ccccc2)c1CCc1ocnc1C(N)=O [Compound 222, 5-[2-(2-Ethyl-3,5-dihydroxy-6-phenylphenyl)ethyl]-1,3-oxazole-4-carboxamide] as the molecule, how does the GI50 read?
A: ≤ 50 µM

Q: For CCc1c(O)cc(O)c(-c2ccccc2)c1CCc1ocnc1C(=O)NCCO [Compound 223, 5-[2-(2-Ethyl-3,5-dihydroxy-6-phenylphenyl)ethyl]-N-(2-hydroxyethyl)-1,3-oxazole-4-carboxamide], which GI50 is on record?
A: ≤ 50 µM

Q: With CCc1c(O)cc(O)c(-c2ccccc2)c1CCc1ocnc1C(=O)N(CCO)CCO [Compound 224, 5-[2-(2-ethyl-3,5-dihydroxy-6-phenylphenyl)ethyl]-N,N-bis(2-hydroxyethyl)-1,3-oxazole-4-carboxamide] as the molecule, how does the GI50 read?
A: ≤ 50 µM

Q: For CCc1c(O)cc(O)c(-c2ccccc2)c1CCc1ocnc1C(=O)NC(CO)CO [Compound 225, 5-[2-(2-ethyl-3,5-dihydroxy-6-phenylphenyl)ethyl]-N-[2-hydroxy-1-(hydroxymethyl)ethyl]-1,3-oxazole-4-carboxamide], which GI50 is on record?
A: ≤ 50 µM

Q: CCc1c(O)cc(O)c(-c2ccccc2)c1CCc1ocnc1C(=O)NCC(O)CO (stereo not drawn) [Compound 226, N-(2,3-dihydroxypropyl)-5-[2-(2-ethyl-3,5-dihydroxy-6-phenylphenyl)ethyl]-1,3-oxazole-4-carboxamide] was tested. Which GI50 did it give?
A: ≤ 50 µM

Q: For CCc1c(O)cc(O)c(-c2cccc(C)c2)c1CC1O[C@H](CO)[C@@H](CO)O1 [Compound 228, 5-{[(4R,5R)-4,5-bis(hydroxymethyl)-1,3-dioxolan-2-yl]methyl}-6-ethyl-4-(3-methylphenyl)benzene-1,3-diol], which GI50 is on record?
A: ≤ 50 µM

Q: How did the GI50 turn out when OC[C@H]1OC(Cc2cc(O)cc(O)c2-c2ccccc2)O[C@@H]1CO [Compound 230, 5-{[(4R,5R)-4,5-bis(hydroxymethyl)-1,3-dioxolan-2-yl]methyl}-4-phenylbenzene-1,3-diol] was run?
A: ≤ 50 µM

Q: Which GI50 does the source give for OC[C@H]1OC(Cc2c(Br)c(O)cc(O)c2-c2ccccc2)O[C@@H]1CO [Compound 232, 5-{[(4R,5R)-4,5-bis(hydroxymethyl)-1,3-dioxolan-2-yl]methyl}-6-bromo-4-phenylbenzene-1,3-diol] here?
A: ≤ 50 µM

Q: How did the GI50 turn out when CCc1c(O)cc(O)c(-c2cccc(OC)c2)c1CC1O[C@@H](CO)[C@H](CO)O1 [Compound 233, 5-{[(4S,5S)-4,5-Bis(hydroxymethyl)-1,3-dioxolan-2-yl]methyl}-6-ethyl-4-(3-methoxyphenyl)benzene-1,3-diol] was run?
A: ≤ 50 µM

Q: For CC(=O)c1c(O)cc(O)c(-c2ccccc2)c1CC1O[C@H](CO)[C@@H](CO)O1 [Compound 234, 1-(6-{[(4R,5R)-4,5-bis(hydroxymethyl)-1,3-dioxolan-2-yl]methyl}-2,4-dihydroxy-5-phenylphenyl)ethanone], which GI50 is on record?
A: ≤ 50 µM

Q: How did the GI50 turn out when COC(=O)Cc1cc(O)cc(O)c1-c1ccc(CCC(C)=O)o1 [Compound 261, Methyl 3,5-dihydroxy-2-[5-(3-oxobutyl)furan-2-yl]phenylacetate] was run?
A: ≤ 50 µM

Q: OC[C@H]1OC(Cc2c(Cl)c(O)cc(O)c2-c2ccccc2)O[C@@H]1CO [Compound 280, 5-{[(4R,5R)-4,5-bis(hydroxymethyl)-1,3-dioxolan-2-yl]methyl}-6-chloro-4-phenylbenzene-1,3-diol] was tested. Which GI50 did it give?
A: ≤ 50 µM

Q: With CCc1c(O)cc(O)c(-c2cccc(O)c2)c1CC1O[C@@H](CO)[C@H](CO)O1 [Compound 281, 5-{[(4S,5S)-4,5-bis(hydroxymethyl)-1,3-dioxolan-2-yl]methyl}-6-ethyl-4-(3-hydroxyphenyl)benzene-1,3-diol] as the molecule, how does the GI50 read?
A: ≤ 50 µM

Q: With CCc1c(O)cc(O)c(-c2cccc(F)c2)c1CC1O[C@@H](CO)[C@H](CO)O1 [Compound 282, 5-{[(4S,5S)-4,5-bis(hydroxymethyl)-1,3-dioxolan-2-yl]methyl}-6-ethyl-4-(3-fluorophenyl)benzene-1,3-diol] as the molecule, how does the GI50 read?
A: ≤ 50 µM

Q: CCc1c(O)cc(O)c(-c2cc(C)cc(C)c2)c1CC1O[C@@H](CO)[C@H](CO)O1 [Compound 283, 5-{[(4S,5S)-4,5-bis(hydroxymethyl)-1,3-dioxolan-2-yl]methyl}-4-(3,5-dimethylphenyl)-6-ethylbenzene-1,3-diol] was tested. Which GI50 did it give?
A: ≤ 50 µM

Q: With CCc1c(O)cc(O)c(-c2cccc(NC(C)=O)c2)c1CC1O[C@@H](CO)[C@H](CO)O1 [Compound 284, 4-[3-(acetylamino)phenyl]-5-{[(4S,5S)-4,5-bis(hydroxymethyl)-1,3-dioxolan-2-yl]methyl}-6-ethylbenzene-1,3-diol] as the molecule, how does the GI50 read?
A: ≤ 50 µM

Q: With OC[C@@H]1OC(Cc2c(Cl)c(O)cc(O)c2-c2ccccc2)O[C@H]1CO [Compound 285, 5-{[(4S,5S)-4,5-bis(hydroxymethyl)-1,3-dioxolan-2-yl]methyl}-6-chloro-4-phenylbenzene-1,3-diol] as the molecule, how does the GI50 read?
A: ≤ 50 µM

Q: Which GI50 does the source give for CCc1c(O)cc(O)c(-c2cccc(OC)c2)c1CC1O[C@H](CO)[C@@H](CO)O1 [Compound 286, 5-{[(4R,5R)-4,5-bis(hydroxymethyl)-1,3-dioxolan-2-yl]methyl}-6-ethyl-4-(3-methoxyphenyl)benzene-1,3-diol] here?
A: ≤ 50 µM

Q: For CC(=O)c1c(O)cc(O)c(-c2ccccc2)c1CC1O[C@@H](CO)[C@H](CO)O1 [Compound 287, 6-Acetyl-5-{[(4S,5S)-4,5-bis(hydroxymethyl)-1,3-dioxolan-2-yl]methyl}-4-phenylbenzene-1,3-diol], which GI50 is on record?
A: ≤ 50 µM

Q: CCc1c(O)cc(O)c(-c2cccc(C(N)=O)c2)c1CC1O[C@@H](CO)[C@H](CO)O1 [Compound 288, 5-{[(4S,5S)-4,5-Bis(hydroxymethyl)-1,3-dioxolan-2-yl]methyl}-6-ethyl-4-(3-carbamoylphenyl)benzene-1,3-diol] was tested. Which GI50 did it give?
A: ≤ 50 µM

Q: How did the GI50 turn out when CCc1c(O)cc(O)c(-c2cccc(C(=O)NC)c2)c1CC1O[C@@H](CO)[C@H](CO)O1 [Compound 289, 5-{[(4S,5S)-4,5-Bis(hydroxymethyl)-1,3-dioxolan-2-yl]methyl}-6-ethyl-4-[3-(methylcarbamoyl)phenyl]benzene-1,3-diol] was run?
A: ≤ 50 µM

Q: CCc1c(O)cc(O)c(-c2cccc(C(=O)N(C)C)c2)c1CC1O[C@@H](CO)[C@H](CO)O1 [Compound 290, 5-{[(4S,5S)-4,5-Bis(hydroxymethyl)-1,3-dioxolan-2-yl]methyl}-4-[3-(dimethylcarbamoyl)phenyl]-6-ethylbenzene-1,3-diol] was tested. Which GI50 did it give?
A: ≤ 50 µM

Q: For CCc1c(O)cc(O)c(-c2ccc(F)c(C)c2)c1CC1O[C@H](CO)[C@@H](CO)O1 [Compound 291, 5-{[(4R,5R)-4,5-bis(hydroxymethyl)-1,3-dioxolan-2-yl]methyl}-6-ethyl-4-(4-fluoro-3-methylphenyl)benzene-1,3-diol], which GI50 is on record?
A: ≤ 50 µM

Q: CCc1c(O)cc(O)c(-c2cccc(C(=O)N(C)C)c2)c1CC1O[C@H](CO)[C@@H](CO)O1 [Compound 292, 5-{[(4R,5R)-4,5-bis(hydroxymethyl)-1,3-dioxolan-2-yl]methyl}-4-[3-(dimethylcarbamoyl)phenyl]-6-ethylbenzene-1,3-diol] was tested. Which GI50 did it give?
A: ≤ 50 µM

— patent US7538241B2, “Hsp90 family protein inhibitors” (Kyowa Hakko Kogyo Co., Ltd., priority 2003, dated 2009)
